Laboratory results taken from US6500472B2, “Folic acid and/or vitamin B12-lactoferrin complex” (Snow Brand Milk Products Co., Ltd., priority 2000, dated 2002).
Where two headings read alike, the source gives them in different places.

Key:
[1] = Light radiation test (40-watt fluorescent lamp), folic acid measured by method using microorganisms; type: physicochemical; conditions: phosphate buffer pH 6.5
Description: A light radiation test was carried out with a folic acid-lactoferrin complex. Namely, to a 1 μmol lactoferrin solution which was prepared by dissolving lactoferrin into 50 ml of a 50 mM sodium bicarbonate aqueous solution (pH 8.5) was added folic acid to make a 100 μmol solution. The resultant admixture was subjected to dialysis using a dialysis membrane (cut-off molecular weight: 10 kDa) against a 5 mM phosphate buffer solution (pH 6.5) and then to freeze-drying to obtain a folic acid-lactoferrin complex. The resulting folic acid-lactoferrin complex powder was dissolved in a 50 mM phosphoric acid buffer solution (pH 6.5) at a concentration of 3 mg/100 ml. Separately, folic acid (a product of Sigma) was dissolved in a 50 mM phosphoric acid buffer solution (pH 6.5) at a concentration of 0.8 mg/100 ml. Each sample solution (5 ml) was dispensed into a transparent polyethylene container, water was added to a depth of 5 mm, and the solution was subjected to radiation with a 40-watt fluorescent lump from a height of 30 mm, after which the amount of folic acid was measured by a method using microorganisms. Namely, the pH of the folic acid-lactoferrin complex sample was adjusted to 2.0, 2 mg of pepsin (a product of Sigma) per 1 ml sample were added, and proteolysis was carried out at 37 C for 120 minutes, after which the pH was further adjusted to 7.5, 2 mg of trypsin (a product of Sigma) per 1 ml sample were added, and proteolysis was carried out at 37 C for 120 minutes. After deaeration, the reaction solution was heated for 5 minutes and centrifuged at 15,000 G to recover the supernatant. The amount of folic acid was measured by a method using microorganisms (Davis, R. E., D. J. Nicol & A. Kelly, J. Clin. Path., vol. 23, pp. 47-53, 1970). Further, a calibration curve was obtained by using folic acid (a product of Sigma). These operations and measurements were carried out in the dark except for the fluorescent radiation.

[2] = molecular target: T1, lactoferrin (Bos taurus, UniProt P24627); test: Folic acid held by lactoferrin (UF membrane separation, free folic acid by optical density at 362 nm); type: binding; conditions: for Amount of folic acid held per 1 μmol of lactoferrin: 50 mM sodium bicarbonate pH 8.5
T1 sequence (P24627 20-708): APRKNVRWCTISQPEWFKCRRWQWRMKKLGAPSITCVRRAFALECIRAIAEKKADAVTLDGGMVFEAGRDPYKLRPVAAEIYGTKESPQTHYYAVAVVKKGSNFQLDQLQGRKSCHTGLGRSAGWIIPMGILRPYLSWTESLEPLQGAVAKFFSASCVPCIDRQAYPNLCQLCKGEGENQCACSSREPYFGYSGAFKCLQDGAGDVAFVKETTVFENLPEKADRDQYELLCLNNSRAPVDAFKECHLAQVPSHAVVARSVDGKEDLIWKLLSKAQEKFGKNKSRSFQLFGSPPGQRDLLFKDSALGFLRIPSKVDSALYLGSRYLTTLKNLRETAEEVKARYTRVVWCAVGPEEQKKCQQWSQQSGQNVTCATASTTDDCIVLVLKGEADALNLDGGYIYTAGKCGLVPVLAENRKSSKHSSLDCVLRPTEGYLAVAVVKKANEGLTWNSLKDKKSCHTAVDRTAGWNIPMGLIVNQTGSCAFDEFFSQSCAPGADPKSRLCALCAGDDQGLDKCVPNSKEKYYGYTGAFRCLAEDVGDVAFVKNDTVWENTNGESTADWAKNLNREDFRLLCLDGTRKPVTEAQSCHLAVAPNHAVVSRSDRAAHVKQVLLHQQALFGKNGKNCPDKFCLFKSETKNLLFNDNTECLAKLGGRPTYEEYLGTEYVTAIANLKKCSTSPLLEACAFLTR
Description: A lactoferrin solution at a concentration of 1 μmol/20 ml was prepared by dissolving lactoferrin in a 50 mM sodium bicarbonate aqueous solution (pH 8.5), and folic acid was added at a concentration of 10 to 300 μmol/20 ml. The resultant admixture was treated with an ultrafiltration (UF) membrane (cut-off molecular weight: 5 kDa; a product of Millipore Corp.) to separate it into the permeate and the retentate. Further, a 50 mM sodium bicarbonate aqueous solution (pH 8.5) was added to the remaining retentate to recover the permeate. This process was repeated four times and the resulting permeate was diluted […] to recover the whole free folic acid into the permeate. The amount of binding-type folic acid remaining in the retentate was calculated from the amount of free folic acid contained in the recovered permeate obtained by measuring optical density at 362 nm. Upon measuring the optical density for folic acid, it was confirmed that no protein was eluted into the permeate and no inhibiting substance derived from proteins existed. Further, a folic acid aqueous solution without protein was simultaneously subjected to the UF membrane treatment to prepare a control sample. These operations and measurements were performed in the dark to prevent decomposition of folic acid. No decomposition of folic acid during the measurement was confirmed by the optical density measurement.

[3] = Stability of folic acid in citric acid buffer pH 2.5 after sterilization and storage at 37 C; type: physicochemical
Description: Folic acid and the folic acid-lactoferrin complex used in Test Example 2 were each added to a 10 mM citric acid buffer solution (pH 2.5) at a folic acid concentration of 0.25 μmol/10 ml. Next, 50 ml portions of the solutions were dispensed in brown bottles, sterilized at 90 C for 30 minutes and then stored at 37 C. The amount of folic acid was measured in the same manner as in Test Example 2.

[4] = Turbidity at 660 nm / solubility in deionized water; type: physicochemical
Description: Folic acid and the folic acid-lactoferrin complex used in Test Example 2 were each added to deionized water at a folic acid concentration of 0.1 to 10 μmol/10 ml to measure turbidity at 660 nm.

[5] = cited from earlier work
[6] = molecular target: T1, lactoferrin; test: Vitamin B12 held by lactoferrin (UF membrane separation, method using microorganisms); type: binding; conditions: for Amount of vitamin B12 held per 1 μmol of lactoferrin: imidazole buffer pH 6.5
Description: The resultant solution was treated with a UF membrane (cut-off molecular weight: 5 kDa; a product of Millipore Corp.) to separate it into the permeate and the retentate. Further, a 50 mM imidazole buffer solution (pH 6.5) was added to the remaining retentate to recover the permeate. This process was repeated four times and the resulting permeate was diluted […] to recover whole free vitamin B12 into the permeate. Further, the pH of the vitamin B12-lactoferrin complex sample in the retentate was adjusted to 2.0, 2 mg of pepsin (a product of Sigma) per 1 ml sample were added, and proteolysis was carried out at 37 C for 60 minutes, after which the pH was further adjusted to 7.5, 2 mg of trypsin (a product of Sigma) per 1 ml sample were added, and proteolysis was carried out at 37 C for 120 minutes. After heating, the supernatant was recovered by centrifugation at 15,000 G. The amount of vitamin B12 was measured by a method using microorganisms (Encyclopedia of Vitamins, the Japanese Association of Vitaminology, Asakura Shoten, p. 501, 1996). Further, a calibration curve was obtained by using cyanocobalmin (a product of Sigma).

[7] = Vitamin B12 reduction after sterilization at 90 C and storage at 35 C for 2 months; type: physicochemical; conditions: sterilized 90 C 30 min, stored 35 C 2 months
Description: […] The resultant admixture was subjected to dialysis using a dialysis membrane (cut-off molecular weight: 5 kDa) against deionized water and then to freeze-drying to obtain a vitamin B12-lactoferrin complex in which 57 molecules of vitamin B12 were held per one molecule of lactoferrin. […] […] Portions (5 ml) of each sample solution were dispensed into heat-resistant glass bottles and sealed, sterilized at 90 C for 30 minutes and then stored at 35 C for 2 months. The reduction rates of vitamin B12 were measured. The amount of vitamin B12 was measured in the same manner as in Test Example 5.

[8] = Folic acid concentration 0.1 μmol/10 ml in deionized water
[9] = Folic acid concentration 1.0 μmol/10 ml in deionized water
[10] = Folic acid concentration 10 μmol/10 ml in deionized water

Compound: Nc1nc2ncc(CNc3ccc(C(=O)N[C@@H](CCC(=O)O)C(=O)O)cc3)nc2c(=O)[nH]1 [Folic acid]
- Folic acid ([1]; Radiation time 0 min): 0.16 μmol/10 ml
- Folic acid ([1]; Radiation time 0.5 min): 0.13 μmol/10 ml
- Folic acid ([1]; Radiation time 7 min): 0.03 μmol/10 ml
- Amount of folic acid held per 1 μmol of lactoferrin ([2]; Folic acid added 10 μmol): 9.3 µmol
- Amount of folic acid held per 1 μmol of lactoferrin ([2]; Folic acid added 50 μmol): 40 µmol
- Amount of folic acid held per 1 μmol of lactoferrin ([2]; Folic acid added 100 μmol): 79 µmol
- Amount of folic acid held per 1 μmol of lactoferrin ([2]; Folic acid added 200 μmol): 160 µmol
- Amount of folic acid held per 1 μmol of lactoferrin ([2]; Folic acid added 300 μmol): 210 µmol
- Maximal amount of folic acid incorporated ([2]; maximally): about 200 molecules per one molecule of lactoferrin
- Folic acid ([3]; Before heat pasteurization, citric acid buffer pH 2.5): 0.28 μmol/10 ml
- Folic acid ([3]; Immediately after heat pasteurization (90 C, 30 min), pH 2.5): 0.18 μmol/10 ml
- Folic acid ([3]; Stored for 2 months at 37 C, pH 2.5): 0.05 μmol/10 ml
- Folic acid ([3]; Stored for 4 months at 37 C, pH 2.5): 0.01 μmol/10 ml
- Appearance of solution [4, 8]: Slightly turbid
- Turbidity at 660 nm [4, 8]: 0.01
- Appearance of solution [4, 9]: Insoluble
- Turbidity at 660 nm [4, 9]: 0.025
- Appearance of solution [4, 10]: Insoluble
- Turbidity at 660 nm [4, 10]: 0.034
- Solubility of folic acid in deionized water ([4]; deionized water): less than 0.1 μmol/10 ml
- Folic acid lost ([5]; cow's milk, heat sterilization or during storage): about 60%
- Folic acid lost ([5]; powdered milk): 25%

Compound: Vitamin B12
- Amount of vitamin B12 held per 1 μmol of lactoferrin ([6]; Vitamin B12 added 10 μmol): 4.2 µmol
- Amount of vitamin B12 held per 1 μmol of lactoferrin ([6]; Vitamin B12 added 100 μmol): 41 µmol
- Amount of vitamin B12 held per 1 μmol of lactoferrin ([6]; Vitamin B12 added 500 μmol): 130 µmol
- Maximal amount of vitamin B12 carried ([6]; maximally): about 100 molecules per one molecule of lactoferrin
- Vitamin B12 reduction rate ([7]; pH 3.0): 48%
- Vitamin B12 reduction rate ([7]; pH 7.5): 8%
